Reference: ChEMBL document CHEMBL1129344, “Chemical synthesis of benzamide adenine dinucleotide: inhibition of inosine monophosphate dehydrogenase (types I and II)” (J Med Chem, 1996)

Experiments:
Homo sapiens [1] = species on record: Homo sapiens; experiment: Compound was evaluated for binding affinity by enzymatically to inhibit IMPDH; format: functional
Homo sapiens [2] = species on record: Homo sapiens; experiment: Compound was evaluated for inhibition of inosine monophosphate dehydrogenase type-I; format: functional, organism-based
Homo sapiens [3] = species on record: Homo sapiens; experiment: Compound was evaluated for inhibition of inosine monophosphate dehydrogenase type-II; format: functional, organism-based
Homo sapiens [4] = species on record: Homo sapiens; experiment: Compound was evaluated for inhibitory concentration of inosine monophosphate dehydrogenase; format: functional, organism-based
Homo sapiens [5] = species on record: Homo sapiens; experiment: Binding affinity towards less potent effect against alcohol dehydrogenase (ADH); format: functional
Homo sapiens [6] = species on record: Homo sapiens; experiment: Compound was evaluated for inhibitory concentration potent against IMPDH type-I; format: functional, organism-based
Homo sapiens [7] = species on record: Homo sapiens; experiment: Compound was evaluated for inhibitory concentration potent against IMPDH type-II; format: functional, organism-based

Question: For `NC(=O)c1cccc([C@@H]2O[C@H](CO)[C@@H](O)[C@H]2O)c1`, which Ki (Homo sapiens [1]) is on record?
Answer: 0.118 µM

Question: What about the IC50 (Homo sapiens [2]) of the same compound?
Answer: 0.78 µM

Question: And the IC50 (Homo sapiens [3])?
Answer: 0.88 µM

Question: Which IC50 (Homo sapiens [4]) does the source give for `NC(=O)c1cncc([C@@H]2O[C@H](CO)[C@@H](O)[C@H]2O)c1` here?
Answer: 7 µM

Question: Which Ki (Homo sapiens [5]) does the source give for `NC(=O)c1cccc([C@@H]2O[C@H](CO)[C@@H](O)[C@H]2O)n1` here?
Answer: 0.02 µM

Question: And the IC50 (Homo sapiens [4])?
Answer: 26 µM

Question: For `NC(=O)c1csc([C@@H]2O[C@H](CO)[C@@H](O)[C@H]2O)n1` [TIAZOFURIN], which IC50 (Homo sapiens [6]) is on record?
Answer: 0.094 µM

Question: What about the IC50 (Homo sapiens [7]) of the same compound?
Answer: 0.101 µM
